For orientation: IC50 means the concentration at which inhibition is half-maximal. Higher therefore signals weaker potency.

These results are taken from patent publication US20230114674A1, “ISOINDOLINE DERIVATIVE, AND PHARMACEUTICAL COMPOSITION AND USE THEREOF” (KANGPU BIOPHARMACEUTICALS, LTD., priority 2020, published 2023).

The test has as its system MM.1S myeloma cells. Briefly: Cell proliferation inhibition test by MTS assay. Type of test: cell-based. As to conditions: Homo sapiens, MM1.S, 72 hours drug treatment, 15,000 cells/well, 96-well plate. The procedure:
Experimental Method for Cell Proliferation Inhibition Test by MTS Assay:
Proliferating MM.1S myeloma cells (ATCC, Cat #CRL-2974) were resuspended in RPMI-640 medium (Gibco, Cat #A10491-01) and counted using an automated cell counter. The cell suspension was diluted to the needed density and 100 μl (15,000 cells) of the cell suspension was plated per well in a 96-well plate. The plate was cultured in a 37° C., 5% CO2 incubator for 24 hours. On the day of administration, each compound was formulated into 20 mM stock solution with DMSO (Sigma, Cat #D2650), diluted with a medium to the needed concentration, and then added to the corresponding wells for the cell proliferation inhibition test with a drug of 4-fold serial dilution with 10 points. The final concentration of DMSO was 0.5%. After drug addition, the 96-well plate was cultured in a 37° C., 5% CO2 incubator for 72 hours. Then, 20 μl of MTS (Promega, Cat #G3581) was added to each well and the plate was cultured for 2 hours in a 37° C., 5% CO2 incubator, and then the absorbance at 490 nm of each well was recorded using an Ensight instrument. The reading of the cells at Day 0 was used as a negative control and the reading of cells with 0.5% DMSO at Day-3 was used as a positive control. Cell proliferation inhibition curve was plotted using GraphPad Prism 5 software and the IC50 value was calculated. Experiment results can be seen in Table 1.
For orientation: Tetrazolium dyes change colour on reduction, which living cells bring about.

In turn, `N#Cc1ccc(N2CCN(Cc3ccc(COc4cccc5c4CN([C@H]4CCC(=O)NC4=O)C5=O)c(F)c3)CC2)cc1` [CM-10] yielded an IC50 of 0.0105 nM. This counts as picomolar.
The same measure for `Cc1cc(N2CCN(Cc3ccc(COc4cccc5c4CN([C@H]4CCC(=O)NC4=O)C5=O)c(F)c3)CC2)ccc1C#N` [CM-11]: 0.0091 nM; for `COc1cc(C#N)ccc1N1CCN(Cc2ccc(COc3cccc4c3CN([C@H]3CCC(=O)NC3=O)C4=O)c(F)c2)CC1` [CM-27]: 0.134 nM.
As to `COc1cc(N2CCN(Cc3ccc(COc4cccc5c4CN([C@H]4CCC(=O)NC4=O)C5=O)cc3F)CC2)ccc1C#N` [CM-21], the IC50 amounted to 0.0111 nM.
The same measure for `N#Cc1ncc(N2CCN(Cc3ccc(COc4cccc5c4CN([C@H]4CCC(=O)NC4=O)C5=O)cc3F)CC2)cc1C(F)(F)F` [CM-25]: 0.0291 nM; for `N#Cc1ccc(N2CCN(Cc3ccc(COc4cccc5c4CN([C@H]4CCC(=O)NC4=O)C5=O)c(F)c3)CC2)c(C(F)(F)F)c1` [CM-8]: 0.0211 nM.
The value for `N#Cc1ccc(N2CCN(Cc3ccc(COc4cccc5c4CN([C@H]4CCC(=O)NC4=O)C5=O)c(F)c3)CC2)cc1F` [CM-5, (S)-4-(4-(4-(((2-(2,6-dioxopiperidin-3-yl)-1-oxoisoindolin-4-yl)oxy)methyl)-3-fluorobenzyl)piperazin-1-yl)-2-fluorobenzonitrile] was 0.0063 nM; that for `CCOc1cc(N2CCN(Cc3ccc(COc4cccc5c4CN([C@H]4CCC(=O)NC4=O)C5=O)c(F)c3)CC2)ccc1C#N` [CM-12] was 0.0067 nM; that for `N#Cc1ccc(N2CCN(Cc3ccc(COc4cccc5c4CN(C4CCC(=O)NC4=O)C5=O)c(F)c3)CC2)nc1` (stereo not drawn) [CM-29] was 0.201 nM.
The same measure for `O=C1CC[C@H](N2Cc3c(OCc4ccc(CN5CCN(c6ccc([N+](=O)[O-])cc6F)CC5)cc4F)cccc3C2=O)C(=O)N1` [CM-2, (S)-3-(4-((2-fluoro-4-((4-(2-fluoro-4-nitrophenyl)piperazin-1-yl)methyl)benzyl)oxy)-1-oxoisoindolin-2-yl)piperidine-2,6-dione]: 0.0139 nM.
In turn, `[2H]C([2H])([2H])Oc1cc(N2CCN(Cc3ccc(COc4cccc5c4CN([C@H]4CCC(=O)NC4=O)C5=O)c(F)c3)CC2)ccc1C#N` [CM-15] came in with an IC50 of 0.0062 nM. Against the preceding molecule, the IC50 is about 2.2-fold lower.
The same measure for `N#Cc1ccc(N2CCN(Cc3ccc(COc4cccc5c4CN([C@H]4CCC(=O)NC4=O)C5=O)c(F)c3)CC2)cn1` [CM-28]: 0.102 nM; for `N#Cc1ccc(N2CCN(Cc3ccc(COc4cccc5c4CN([C@H]4CCC(=O)NC4=O)C5=O)c(F)c3)CC2)cc1C(F)(F)F` [CM-6, (S)-4-(4-(4-(((2-(2,6-dioxopiperidin-3-yl)-1-oxoisoindolin-4-yl)oxy)methyl)-3-fluorobenzyl)piperazin-1-yl)-2-(trifluoromethyl)benzonitrile]: 0.0409 nM; for `NC(=O)c1ccc(N2CCN(Cc3ccc(COc4cccc5c4CN([C@H]4CCC(=O)NC4=O)C5=O)cc3F)CC2)c(F)c1` [CM-23]: 0.0581 nM.
The value for `N#Cc1ccc(N2CCN(Cc3ccc(COc4cccc5c4CN([C@H]4CCC(=O)NC4=O)C5=O)c(F)c3)CC2)cc1OCC1CC1` [CM-13] was 0.0271 nM; that for `CNC(=O)c1cc(C#N)ccc1N1CCN(Cc2ccc(COc3cccc4c3CN([C@H]3CCC(=O)NC3=O)C4=O)c(F)c2)CC1` [CM-34] was 0.0766 nM; that for `N#Cc1ccc(N2CCN(Cc3ccc(COc4cccc5c4CN([C@H]4CCC(=O)NC4=O)C5=O)c(F)c3)CC2)cc1C1CC1` [CM-37] was 0.119 nM.
`N#Cc1ccc(N2CCN(Cc3ccc(COc4cccc5c4CN([C@H]4CCC(=O)NC4=O)C5=O)cc3F)CC2)cc1F` [CM-20]: it took 0.0132 nM to reach half-maximal inhibition (IC50).
The same measure for `N#Cc1ccc(N2CCN(Cc3ccc(COc4cccc5c4CN([C@H]4CCC(=O)NC4=O)C5=O)c(F)c3)CC2)c(C#N)c1` [CM-30]: 0.109 nM; for `NC(=O)c1ccc(N2CCN(Cc3ccc(COc4cccc5c4CN([C@H]4CCC(=O)NC4=O)C5=O)c(F)c3)CC2)c(F)c1` [CM-24]: 0.0388 nM; for `COc1cc(N2CCN(Cc3ccc(COc4cccc5c4CN([C@H]4CCC(=O)NC4=O)C5=O)c(F)c3)CC2)ccc1C#N` [CM-7, (S)-4-(4-(4-(((2-(2,6-dioxopiperidin-3-yl)-1-oxoisoindolin-4-yl)oxy)methyl)-3-fluorobenzyl)piperazin-1-yl)-2-methoxybenzonitrile]: 0.0054 nM.
In turn, `NC(=O)c1ccc(N2CCN(Cc3ccc(COc4cccc5c4CN([C@H]4CCC(=O)NC4=O)C5=O)c(F)c3)CC2)cc1F` [CM-18, (S)-4-(4-(4-(((2-(2,6-dioxopiperidin-3-yl)-1-oxoisoindolin-4-yl)oxy)methyl)-3-fluorobenzyl)piperazin-1-yl)-2-fluorobenzamide] yielded a half-maximal inhibitory concentration (IC50) of 0.0188 nM.
The value for `N#Cc1ccc(N2CCN(Cc3ccc(COc4cccc5c4CN([C@H]4CCC(=O)NC4=O)C5=O)cc3F)CC2)c(F)c1` [CM-4, (S)-4-(4-(4-(((2-(2,6-dioxopiperidin-3-yl)-1-oxoisoindolin-4-yl)oxy)methyl)-2-fluorobenzyl)piperazin-1-yl)-3-fluorobenzonitrile] was 0.0153 nM; that for `CCc1cc(N2CCN(Cc3ccc(COc4cccc5c4CN([C@H]4CCC(=O)NC4=O)C5=O)c(F)c3)CC2)ccc1C#N` [CM-41] was 0.116 nM; that for `CCOc1cc(C#N)ccc1N1CCN(Cc2ccc(COc3cccc4c3CN([C@H]3CCC(=O)NC3=O)C4=O)c(F)c2)CC1` [CM-36] was 0.148 nM.
The value for `N#Cc1ccc(N2CCN(Cc3ccc(COc4cccc5c4CN([C@H]4CCC(=O)NC4=O)C5=O)c(F)c3)CC2)c(Cl)c1` [CM-9] was 0.0136 nM; that for `CCc1cc(C#N)ccc1N1CCN(Cc2ccc(COc3cccc4c3CN([C@H]3CCC(=O)NC3=O)C4=O)c(F)c2)CC1` [CM-35] was 0.0962 nM; that for `N#Cc1ccc(N2CCN(Cc3ccc(COc4cccc5c4CN([C@H]4CCC(=O)NC4=O)C5=O)c(F)c3)CC2)cc1Cl` [CM-39] was 0.0631 nM.
For the molecule `N#Cc1ccc(N2CCN(Cc3ccc(COc4cccc5c4CN([C@H]4CCC(=O)NC4=O)C5=O)c(F)c3)CC2)c(F)c1` [CM-3, (S)-4-(4-(4-(((2-(2,6-dioxopiperidin-3-yl)-1-oxoisoindolin-4-yl)oxy)methyl)-3-fluorobenzyl)piperazin-1-yl)-3-fluorobenzonitrile], inhibition was half-maximal at 0.0064 nM (IC50).
The same measure for `N#Cc1ccc(N2CCN(Cc3ccc(COc4cccc5c4CN([C@H]4CCC(=O)NC4=O)C5=O)c(Cl)c3)CC2)c(F)c1` [CM-1]: 0.102 nM; for `C#Cc1ccc(N2CCN(Cc3ccc(COc4cccc5c4CN([C@H]4CCC(=O)NC4=O)C5=O)c(F)c3)CC2)c(F)c1` [CM-43]: 0.576 nM.
As to `CCOc1nc(N2CCN(Cc3ccc(COc4cccc5c4CN([C@H]4CCC(=O)NC4=O)C5=O)cc3F)CC2)ccc1OC` [CM-26], the midpoint of inhibition, the IC50, lay at 0.465 nM.
The value for `C=Cc1ccc(N2CCN(Cc3ccc(COc4cccc5c4CN([C@H]4CCC(=O)NC4=O)C5=O)c(F)c3)CC2)c(F)c1` [CM-38] was 1.21 nM.
The same measure for `O=C1CC[C@H](N2Cc3c(OCc4ccc(CN5CCN(c6ccc(C(F)(F)F)c(F)c6)CC5)cc4F)cccc3C2=O)C(=O)N1` [CM-16]: 0.189 nM.
As to `N#Cc1ccc(N2CCN(Cc3ccc(COc4cccc5c4CN([C@H]4CCC(=O)NC4=O)C5=O)c(F)c3)CC2)c(O)c1` [CM-40], the IC50 is 0.378 nM.
The value for `N#Cc1ccc(N2CCN(Cc3ccc(COc4cccc5c4CN([C@H]4CCC(=O)NC4=O)C5=O)c(F)c3)CC2)c(C(N)=O)c1` [CM-33] was 0.0781 nM.
